# Experimental data taken from patent publication US5279956A, “Activated protein C polypeptides and anti-peptide antibodies, diagnostic methods and systems for inhibiting activated protein C” (The Scripps Research Institute, priority 1991, dated 1994).
# No end group written: not given here.
# Legend:
# [1] = biological target: T1, APC (Homo sapiens, UniProt P04070); assay: Xa-1-stage coagulation assay of APC anticoagulant activity; format: biochemical
# T1 construct: begins at amino acid residue position 158 and ends at 419; The light chain is 155 amino acid residues in length; tissue Factor IX concentrate from Immuno AG, Vienna; thrombin from Enzyme Research Laboratories
# Procedure: For testing the inhibition of the synthetic peptides on APC activity described above, Xa-1-stage coagulation assays were also performed as described. See Seegers et al., Thrombosis Res., 13:233-243 (1978); Marlar et al., supra; and Walker et al., J. Biol. Chem. 265:1484-1489 (1990). […] The resulting admixtures were maintained for seven minutes at 37° C. Separate aliquots of peptides maintained under the same conditions in the absence of APC served as controls for the inhibitory effect of synthetic peptides on APC anticoagulant activity. After the maintenance period, 100 μl of NHP and 100 μl of 200 μg/ml of rabbit brain cephalin (Sigma) were admixed into each peptide admixture and maintained for 200 seconds at 37° C. to form pre-coagulation admixtures. In some experiments, Factor VIII deficient plasma (George King Bio-Medical, Inc.) was used in the place of NHP to determine the effect of Factor VIII on the assay system. Coagulation was then initiated by the admixture of 100 μl of 0.62 nM human activated Factor X (Xa) (Enzyme Research Laboratories, Southbend, Ind.) in TBS-BSA containing 30 mM CaCl2 prewarmed to 37° C. to each of the pre-coagulation admixtures.
# The time for clot formation was measured by an Electra 700 Automatic Coagulation Timer (Medical Laboratory Automation, Inc., Mount Vernon, N.Y.). Each peptide's effect was determined in duplicate. The results of the inhibition of APC anticoagulant activity by synthetic peptides as measured in Xa-1-stage coagulation assays are described above and are presented as the mean values obtained with […].
# Additional assays were performed to compare the specificity of the inhibitory effect of peptide-(390-404) on APC anticoagulant activity. Both APTT and Xa-1-stage assays were performed with peptide-(390-404) and with the same peptide synthesized in the reverse order, peptide-(404-390), at concentrations of the peptides ranging from 0 μM to 40 μM. In APTT assays performed as described above in the presence of NHP, APC was used at a concentration of 2.5 nM. […]
# [2] = biological target: T1, APC; assay: Amidolytic activity of APC towards chromogenic substrate S-2366; format: biochemical; conditions: for effect on APC amidolytic activity towards S-2366: all concentrations up to 500 μM
# Procedure: The effects of PC-derived inhibitory synthetic peptides on the amidolytic activity of APC were evaluated to determine if the peptides inhibited APC anticoagulant activity by blocking a region in or close to the active site of the enzyme involved in cleavage of a small substrate such as S-2366 (Kabi-Vitrum) or involved in the site of interaction with the recombinant mutant (Arg^358)α1 -antitrypsin (α1 -AT) (Transgene, Strasbourg, France), the latter of which is described in Example 5a4) below. The assay was performed as described by Marlar et al., supra; and Suzuki et al., supra.
# The amidolytic activity of APC toward the peptide substrate S-2366 was measured in the presence of various PC synthetic peptides prepared in Example 1. For the assay, 100 μl of 15 nM APC, prepared in Example 2c2), was admixed with separate aliquots of peptide-(390-404) ranging in concentration from 0.0 to 750 μM prepared in TBS-BSA at pH 7.4 containing 0.02% NaN3 and 2 mM CaCl2 to form APC-peptide admixtures, respectively. After maintenance of the admixtures for 30 minutes at 37° C., 50 μl of 2.4 mM S-2366 in the same buffer was admixed to initiate the amidolytic reaction. The hydrolysis of the substrate was monitored by the change in absorbance at 405 nm at 37° C. over time using an EL312 Microplate Bio-Kinetics Reader (BIO-TEK Instruments, Inc. Vt.).
# The amidolytic activity of APC toward the peptide substrate S-2366 was measured in the presence of anti-(390-404) antibody. For the assay, 100 μl of 15 nM APC, prepared in Example 2c2), were admixed with separate aliquots of anti-(390-404) antibody ranging in concentration from 0.0 to 500 nM prepared in TBS-BSA at pH 7.4 containing 0.02% NaN3 and 2 mM CaCl2 to form APC-anti-(390-404) antibody immunoreaction admixtures, respectively. After maintenance of the admixtures for 30 minutes at 37° C. to allow formation of immunoreaction products, 50 μl of 2.4 mM S-2366 in the same buffer was admixed to initiate the amidolytic reaction. The hydrolysis of the substrate was monitored by the change in absorbance at 405 nm over time using an EL312 Microplate Bio-Kinetics Reader (BIO-TEK Instruments, Inc. Vt.).
# T1 sequence (P04070 212-461): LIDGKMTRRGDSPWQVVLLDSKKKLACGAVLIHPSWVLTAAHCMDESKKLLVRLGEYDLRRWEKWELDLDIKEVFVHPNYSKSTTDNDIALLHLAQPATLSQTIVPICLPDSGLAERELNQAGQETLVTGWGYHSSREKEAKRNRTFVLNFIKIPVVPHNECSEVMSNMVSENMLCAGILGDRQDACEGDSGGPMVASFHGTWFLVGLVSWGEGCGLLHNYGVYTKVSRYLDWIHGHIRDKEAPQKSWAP
# T1 sequence (P04070 43-197): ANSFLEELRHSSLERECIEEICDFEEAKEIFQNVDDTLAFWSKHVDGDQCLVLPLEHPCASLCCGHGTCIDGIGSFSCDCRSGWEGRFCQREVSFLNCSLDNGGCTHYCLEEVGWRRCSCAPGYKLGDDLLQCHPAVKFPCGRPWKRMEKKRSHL
Substance,effect on APC in Xa1-stage assay ([1]; up to 100 μM),"APC amidolytic activity towards S-2366, A405 /5 min ([2]; APC + 250 μM peptide) [A405 /5 min]",effect on APC amidolytic activity towards S-2366 [2],"APC amidolytic activity towards S-2366, A405 /5 min ([2]; APC + 500 μM peptide) [A405 /5 min]",IC50 [1] [µM],IC90 [1] [µM]
"KRNRTFVLNFIKIPV-NH2 [peptide-(311-325), KRNRTFVLNFIKIPV]",no effect,0.342,did not significantly alter,,,
"SGLLHNYGVYTKVSR-NH2 [peptide-(384-398), -SGLLHNYGVYTKVSR]",,,did not significantly alter,0.378,,
"YGVYTKVSRYLDWIH-NH2 [peptide-(390-404), YGVYTKVSRYLDWIH]",,,,,5,40
